Experimental data published in ChEMBL document CHEMBL6109170, “Integrated Advancements in Neuroplasticity, Psychedelic Therapeutics, and AI-Driven Innovations for Precision Medicine” (ACS Med Chem Lett, 2025).

Biological target: T1, 5-hydroxytryptamine receptor 1A (Homo sapiens, UniProt P08908)
T1 sequence (P08908 whole entry): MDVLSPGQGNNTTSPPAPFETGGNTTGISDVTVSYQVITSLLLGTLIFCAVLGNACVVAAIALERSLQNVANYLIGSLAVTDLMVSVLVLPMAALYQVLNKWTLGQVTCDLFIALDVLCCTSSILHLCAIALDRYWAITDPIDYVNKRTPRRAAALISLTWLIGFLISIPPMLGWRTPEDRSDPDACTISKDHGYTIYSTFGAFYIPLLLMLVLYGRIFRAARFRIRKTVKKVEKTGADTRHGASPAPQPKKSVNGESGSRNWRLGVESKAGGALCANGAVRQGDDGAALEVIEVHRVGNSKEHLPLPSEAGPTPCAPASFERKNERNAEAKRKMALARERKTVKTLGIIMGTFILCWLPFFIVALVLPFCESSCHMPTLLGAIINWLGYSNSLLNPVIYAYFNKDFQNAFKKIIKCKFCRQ
Assay: Binding affinity to 5HT1A receptor (unknown origin) assessed as inhibition constant by radioligand binding assay

Row | Compound | Ki [µM]
1 | CC(=O)Oc1cccc2[nH]cc(CCN(C)C)c12 | > 10
2 | CN(C)CCc1c(Cl)[nH]c2ccccc12 | > 10
3 | CC(=O)Oc1cccc2[nH]c(Br)c(CCN(C)C)c12 | > 10
4 | CC(C)N(CCc1c(Br)[nH]c2ccccc12)C(C)C | > 10
5 | CC(=O)Nc1cccc2[nH]cc(CCN(C)C)c12 | > 10

Biological target: 5-hydroxytryptamine receptor 2A (Homo sapiens, UniProt P28223)
Sequence (P28223 whole entry): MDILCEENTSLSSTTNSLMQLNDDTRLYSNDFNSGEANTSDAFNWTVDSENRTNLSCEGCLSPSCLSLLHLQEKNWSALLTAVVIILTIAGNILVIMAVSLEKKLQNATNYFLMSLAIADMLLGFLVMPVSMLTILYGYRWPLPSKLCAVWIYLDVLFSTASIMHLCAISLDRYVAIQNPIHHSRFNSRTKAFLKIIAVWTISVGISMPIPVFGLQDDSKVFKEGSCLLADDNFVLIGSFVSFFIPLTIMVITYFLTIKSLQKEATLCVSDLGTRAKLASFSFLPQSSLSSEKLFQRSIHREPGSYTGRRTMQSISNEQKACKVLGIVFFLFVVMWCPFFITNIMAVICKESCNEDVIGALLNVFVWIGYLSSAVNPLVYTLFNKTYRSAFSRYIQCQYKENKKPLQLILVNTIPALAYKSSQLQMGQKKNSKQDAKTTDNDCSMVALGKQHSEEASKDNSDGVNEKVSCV
Assay: Binding affinity to 5-HT2A receptor (unknown origin) assessed as inhibition constant by radioligand binding assay

Row | Compound | Ki [µM]
6 | CC(C)N(CCc1c(Br)[nH]c2ccccc12)C(C)C | > 10
